Reference: ChEMBL document CHEMBL1909046, “DrugMatrix in vitro pharmacology data”

Tests used:
[1] = DRUGMATRIX: GABAA, Flunitrazepam, Central radioligand binding (ligand: [3H] Flunitrazepam); format: cell membranes, Rattus norvegicus, Wistar, Brain, Membrane; details: Not Active = under 50% inhibition at 10 µM
[2] = DRUGMATRIX: GABAA, Muscimol, Central radioligand binding (ligand: [3H] Muscimol); format: cell membranes, Rattus norvegicus, Wistar, Brain, Membrane; details: Not Active = under 50% inhibition at 10 µM
Histamine H2 receptor = Histamine H2 receptor (Homo sapiens, UniProt P25021); format: cell membranes, CHO-K1, Membrane; details: cho-k1; further: in other assays of this panel Not Active means under 50% inhibition at 10 µM
[3] = target: T1, Muscarinic acetylcholine receptor M2 (Homo sapiens, UniProt P08172); format: cell membranes, CHO-K1, Membrane; details: cho-k1; further: in other assays of this panel Not Active means under 50% inhibition at 10 µM
T1 sequence (P08172 whole entry): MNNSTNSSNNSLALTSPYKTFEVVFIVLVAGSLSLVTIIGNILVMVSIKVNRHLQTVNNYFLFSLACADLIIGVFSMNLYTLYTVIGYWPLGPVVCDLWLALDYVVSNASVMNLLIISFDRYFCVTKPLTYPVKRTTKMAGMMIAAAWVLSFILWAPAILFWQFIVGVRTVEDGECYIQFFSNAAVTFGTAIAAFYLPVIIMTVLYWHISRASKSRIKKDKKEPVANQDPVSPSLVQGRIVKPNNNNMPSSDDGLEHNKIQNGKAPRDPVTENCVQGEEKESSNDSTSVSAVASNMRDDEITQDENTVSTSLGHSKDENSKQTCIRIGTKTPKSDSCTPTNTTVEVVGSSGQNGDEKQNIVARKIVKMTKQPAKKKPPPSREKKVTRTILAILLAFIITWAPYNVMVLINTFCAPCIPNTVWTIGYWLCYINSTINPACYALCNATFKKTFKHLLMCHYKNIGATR

Glycine receptor = Glycine receptor (Rattus norvegicus, UniProt P22771+P24524+P07727+P20781); format: cell membranes, Wistar, Spinal cord, Membrane; further: in other assays of this panel Not Active means under 50% inhibition at 10 µM
[4] = target: T2, Alpha-1A adrenergic receptor (Rattus norvegicus, UniProt P43140); test: DRUGMATRIX: Alpha-1A adrenergic receptor radioligand binding (ligand: prazosin); format: cell membranes, Wistar, Submaxillary gland, Membrane; details: Not Active = under 50% inhibition at 10 µM
T2 sequence (P43140 whole entry): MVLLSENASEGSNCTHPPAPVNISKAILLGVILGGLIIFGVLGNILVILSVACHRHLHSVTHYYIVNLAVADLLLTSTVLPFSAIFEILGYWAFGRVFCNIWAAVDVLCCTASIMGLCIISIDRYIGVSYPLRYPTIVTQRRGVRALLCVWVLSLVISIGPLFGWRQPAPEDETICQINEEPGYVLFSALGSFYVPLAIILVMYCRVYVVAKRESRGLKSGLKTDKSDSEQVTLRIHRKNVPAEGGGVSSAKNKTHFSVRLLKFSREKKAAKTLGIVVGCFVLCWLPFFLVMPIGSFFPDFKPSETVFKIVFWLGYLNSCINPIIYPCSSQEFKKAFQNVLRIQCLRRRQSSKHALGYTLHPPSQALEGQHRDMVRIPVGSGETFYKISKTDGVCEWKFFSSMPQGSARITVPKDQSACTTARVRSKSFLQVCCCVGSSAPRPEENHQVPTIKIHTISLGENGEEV

Sequence of Histamine H2 receptor (P25021 whole entry): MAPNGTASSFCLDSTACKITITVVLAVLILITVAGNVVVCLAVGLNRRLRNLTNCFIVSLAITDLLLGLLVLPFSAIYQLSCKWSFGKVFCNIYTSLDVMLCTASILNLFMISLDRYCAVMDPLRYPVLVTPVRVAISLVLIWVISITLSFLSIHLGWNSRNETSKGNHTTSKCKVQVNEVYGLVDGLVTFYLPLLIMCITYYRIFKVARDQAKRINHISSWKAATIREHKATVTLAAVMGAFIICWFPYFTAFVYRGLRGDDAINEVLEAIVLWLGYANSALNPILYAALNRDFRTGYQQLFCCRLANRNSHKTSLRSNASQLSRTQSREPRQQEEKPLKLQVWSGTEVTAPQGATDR

Structure (SMILES) | IC50 [1] | Ki [1] | IC50 [2] | Ki [2] | IC50 (Histamine H2 receptor) | IC50 [3] | IC50 (Glycine receptor) | IC50 [4] | IC50 ([1]; read-out: IC50) [nM] | Ki ([1]; read-out: Ki) [nM]
O=C(c1ccccc1C(F)(F)F)N1CCC(Cc2ccccc2)CC1 | Not Active | Not Active | Not Active | Not Active | Not Active | Not Active | Not Active | Not Active | – | –
O=C/C=C/c1ccccc1 | Not Active | Not Active | Not Active | Not Active | Not Active | Not Active | Not Active | Not Active | – | –
Nc1ccc2c3c(cccc13)C(=O)NC2=O | Not Active | Not Active | Not Active | Not Active | Not Active | Not Active | Not Active | Not Active | – | –
COc1ccc(C(=O)N2CCCC2=O)cc1 | Not Active | Not Active | Not Active | Not Active | Not Active | Not Active | Not Active | Not Active | – | –
O=c1cnn([C@@H]2O[C@H](CO)[C@@H](O)[C@H]2O)c(=O)[nH]1 [6-AZAURIDINE] | Not Active | Not Active | Not Active | Not Active | Not Active | Not Active | Not Active | Not Active | – | –
CC[C@H](C)[C@H]1O[C@]2(C=C[C@@H]1C)C[C@@H]1C[C@@H](C/C=C(\C)[C@@H](O[C@H]3C[C@H](OC)[C@@H](O[C@H]4C[C@H](OC)[C@@H](O)[C@H](C)O4)[C@H](C)O3)[C@@H](C)/C=C/C=C3\CO[C@@H]4[C@H](O)C(C)=C[C@@H](C(=O)O1)[C@]34O)O2.CO[C@H]1C[C@H](O[C@H]2[C@H](C)O[C@@H](O[C@@H]3/C(C)=C/C[C@@H]4C[C@@H](C[C@]5(C=C[C@H](C)[C@@H](C(C)C)O5)O4)OC(=O)[C@@H]4C=C(C)[C@@H](O)[C@H]5OC/C(=C\C=C\[C@@H]3C)[C@]54O)C[C@@H]2OC)O[C@@H](C)[C@@H]1O [ABAMECTIN] | Not Active | Not Active | Not Active | Not Active | Not Active | Not Active | – | Not Active | – | –
NCCCC(O)(P(=O)(O)O)P(=O)(O)O [ALENDRONIC ACID] | Not Active | Not Active | Not Active | Not Active | Not Active | Not Active | Not Active | Not Active | – | –
Cc1nnc2n1-c1ccc(Cl)cc1C(c1ccccc1)=NC2 [ALPRAZOLAM] | – | – | Not Active | Not Active | Not Active | Not Active | Not Active | Not Active | 16.6 | 13.5
Cn1c(=O)c2[nH]cnc2n(C)c1=O.Cn1c(=O)c2[nH]cnc2n(C)c1=O.NCCN [AMINOPHYLLINE] | Not Active | Not Active | Not Active | Not Active | Not Active | Not Active | Not Active | Not Active | – | –
CCC1(CCC(C)C)C(=O)NC(=O)NC1=O [AMOBARBITAL] | Not Active | Not Active | Not Active | Not Active | Not Active | Not Active | Not Active | Not Active | – | –
CC1(C)S[C@@H]2[C@H](NC(=O)[C@H](N)c3ccccc3)C(=O)N2[C@H]1C(=O)O [AMPICILLIN] | Not Active | Not Active | Not Active | Not Active | Not Active | Not Active | Not Active | Not Active | – | –
COc1ccc(C2C(=O)c3ccccc3C2=O)cc1 [ANISINDIONE] | Not Active | Not Active | Not Active | Not Active | Not Active | Not Active | Not Active | Not Active | – | –
O=C1O[C@H]([C@@H](O)CO)C(O)=C1O [ASCORBIC ACID] | Not Active | Not Active | Not Active | Not Active | Not Active | Not Active | Not Active | Not Active | – | –
